The values that follow are results of earlier work, collected in patent US7205279B2, “Pharmaceutical compositions” (Novartis AG, priority 1995, dated 2007).

The conditions of the series: room temperature.

For the compound `CCOC(C)=O` [Ethyl acetate], the solubility in water is listed as 8.5 g per 100 ml.
